Assay results taken from patent US4435425A, “Fluorinated diaminobutane derivatives” (Merrell Toraude et Compagnie, priority 1982, dated 1984).

Experiments:
[1] = Toxicity (weight loss and deaths) in mice after daily i.p. injection for four consecutive days, observed up to 12 days (Example 10); type: in vivo, mice (male albino CDI)
Procedure: (§1) A group of 10 male albino CDI mice from Charles Riner, France, is given an i.p. injection of the test compound in aqueous solution daily for four consecutive days. Half of the animals are killed by decapitation 24 hours after the last dose of the test compound. The other half of the animals are observed for up to 12 days for toxicity (as indicated by weight loss and deaths). Control animals receive an injection of the vehicle only.
(§2) When tested as described above, 1-fluoro-2,4-diaminobutane (MFDB) and 1,1-difluoro-2,4-diaminobutane (DFDB) gave the results set forth in Table I below: […]

GABA-T = GABA-T inhibition in mouse brain after daily i.p. injection for four consecutive days (Example 10); type: in vivo, mice (male albino CDI); settings: 24 hours after last dose
Procedure: as §1
The brains are removed from the dead mice and are divided into two portions by sagittal section. One half is used for the measurement of GABA-T activity while the other half is used for measuring GABA content. The GABA-T activity is measured using known methods as described by M. Jung et al., J. Neurochem., 28, 717 (1977) and 29, 797 (1977). GABA content is measured by perchloric acid or trichloroacetic acid extracts using an amino acid analyzer equiped with a fluorescene detector.
as §2

[2] = 5 mg/kg daily i.p. for 4 days, observed up to 12 days

SMILES | Weight Loss ([1]; 5 mg/kg daily i.p. for 4 days) [%] | Morality (After treatment) [1, 2] | Weight Loss ([1]; 10 mg/kg daily i.p. for 4 days) [%] | Morality (After treatment) ([1]; 10 mg/kg daily i.p. for 4 days, observed up to 12 days) | Weight Loss ([1]; 25 mg/kg daily i.p. for 4 days) [%] | Morality (After treatment) ([1]; 25 mg/kg daily i.p. for 4 days, on day 12) | Weight Loss ([1]; 50 mg/kg daily i.p. for 4 days) [%] | Morality (After treatment) ([1]; 50 mg/kg daily i.p. for 4 days, on day 8) | GABA-T Inhibition (GABA-T; 5 mg/kg daily i.p. for 4 days) [%] | GABA-T Inhibition (GABA-T; 10 mg/kg daily i.p. for 4 days) [%] | GABA-T Inhibition (GABA-T; 25 mg/kg daily i.p. for 4 days) [%] | GABA-T Inhibition (GABA-T; 50 mg/kg daily i.p. for 4 days) [%] | Weight Loss ([1]; 2 mg/kg daily i.p. for 4 days) [%] | Morality (After treatment) ([1]; 2 mg/kg daily i.p. for 4 days, observed up to 12 days) | Morality (After treatment) ([1]; 10 mg/kg daily i.p. for 4 days, by day 8) | Weight Loss ([1]; 20 mg/kg daily i.p. for 4 days) [%] | Morality (After treatment) ([1]; 20 mg/kg daily i.p. for 4 days, by day 6) | GABA-T Inhibition (GABA-T; 2 mg/kg daily i.p. for 4 days) [%] | GABA-T Inhibition (GABA-T; 20 mg/kg daily i.p. for 4 days) [%]
NCCC(N)CF (stereo not drawn) [MFDB, 1-Fluoro-2,4-diaminobutane] | 0 | 0/5 | 0 | 0/5 | -20 | 2/5 | -35 | 3/5 | 39.7 | 49.8 | 74 | 79 |  |  |  |  |  |  | 
NCCC(N)C(F)F (stereo not drawn) [DFDB, 1,1-Difluoro-2,4-diaminobutane] | 0 | 0/5 | -25 |  |  |  |  |  | 71.4 | 81 |  |  | 0 | 0/5 | 2/5 | -30 | 5/5 | 69.5 | 96.7
